From the supplement of paper PMC11208160
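Further: IS621 bridge recombinase in Escherichia coli cells against a fixed T5 target plasmid.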

Assay: recombinant UMI read abundance after kanamycin selection (control-corrected) (log10(CPM+1)); higher = more efficient recombination; extreme values may be limits of the assay; sequences stand for … in AGTGCAGAGAAAATCGGCCAGTTTTCTCTGCCTGCAGTCCGCATGCCGTGGGACCCCTTGGGTTCTAACCTGTTGCCTAGATTTATGCAGCGGACTGCCTTTCTCCCAAAGTGATAAACCGG…AGGTTGGTTTCACT; site = the 11-nt donor
Procedure, shortened: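 Sequenced counts of recombinant UMIs were turned into CPM, averaged across replicates and scaled with control-derived factors. The reported figure is log10(CPM+1). Those UMIs, each 12 nt long, tagged donor and donor-binding-loop pairs on a plasmid with a promoterless kanamycin gene, screened as a pool in Escherichia coli with IPTG (0.07 mM) plus kanamycin or without selection.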
In the case of “AGCTCAGCATGGACCGGTTTTCCCGGTAATCCGTATTTGGG (site AGCTCGGCTCC)”, the “recombinant UMI read abundance (log10)” value is reported as 0.0329. In the case of “CTAGTATCATGGACCGGTTTTCCCGGTAATCCGTATTTGAC (site ATAGTAGCTGT)”, the “recombinant UMI read abundance (log10)” value is reported as 0.00849. In the case of “AGATCTACATGGACCGGTTTTCCCGGTAATCCGTATTTGTG (site ATATCTACTCA)”, the “recombinant UMI read abundance (log10)” value is reported as 0.00795. With “ACCAACTCATGGACCGGTTTTCCCGGTAATCCGTATTTGCC (site ACCAACTCTGG)” the “recombinant UMI read abundance (log10)” value was 1.81. With “AAAGTCACATGGACCGGTTTTCCCGGTAATCCGTATTTGAC (site AAAGTCACTGT)” the “recombinant UMI read abundance (log10)” value was 2.44. In the case of “GGAGTGGCATGGACCGGTTTTCCCGGTAATCCGTATTTGGT (site GGCGTGGCTAC)”, the “recombinant UMI read abundance (log10)” value is reported as 0.0051. With “ACACGAACATGGACCGGTTTTCCCGGTAATCCGTATTTGTT (site ACACGAACTAA)” the “recombinant UMI read abundance (log10)” value was 2.08. In the case of “CGGTTTACATGGACCGGTTTTCCCGGTAATCCGTATTTGCT (site CCGTTTACTAG)”, the “recombinant UMI read abundance (log10)” value is reported as 0.391. For “AGCCTAGCATGGACCGGTTTTCCCGGTAATCCGTATTTGGT (site AGCCTAGCTAC)”, the “recombinant UMI read abundance (log10)” value was 0. In the case of “ATCTCAGCATGGACCGGTTTTCCCGGTAATCCGTATTTGGG (site ACCTCAGCTCC)”, the “recombinant UMI read abundance (log10)” value is reported as 0.01. For “CGGTAACCATGGACCGGTTTTCCCGGTAATCCGTATTTGAT (site CGGAAACCTAT)”, the “recombinant UMI read abundance (log10)” value was 0. With “CCCATAACATGGACCGGTTTTCCCGGTAATCCGTATTTGTC (site CCCATACCTGA)” the “recombinant UMI read abundance (log10)” value was 0. For “GCTACCGCATGGACCGGTTTTCCCGGTAATCCGTATTTGCC (site GCTACCGCTGG)”, the “recombinant UMI read abundance (log10)” value was 1.61. For “TTAGCAGCATGGACCGGTTTTCCCGGTAATCCGTATTTGTG (site TTAGCAGCTCA)”, the “recombinant UMI read abundance (log10)” value was 0.707. In the case of “ACAGGTGCATGGACCGGTTTTCCCGGTAATCCGTATTTGAT (site TCAGGTGCTAT)”, the “recombinant UMI read abundance (log10)” value is reported as 1.78. In the case of “CTAGTATCATGGACCGGTTTTCCCGGTAATCCGTATTTGAC (site CTAGTAGCTGT)”, the “recombinant UMI read abundance (log10)” value is reported as 0. For “GCCTTCACATGGACCGGTTTTCCCGGTAATCCGTATTTGTT (site GCCTTCACTAA)”, the “recombinant UMI read abundance (log10)” value was 0.931. In the case of “GTTAGAGCATGGACCGGTTTTCCCGGTAATCCGTATTTGCA (site GTTAGAGCTTG)”, the “recombinant UMI read abundance (log10)” value is reported as 3.02. With “CGATCAACATGGACCGGTTTTCCCGGTAATCCGTATTTGGT (site CGATCATCTAG)” the “recombinant UMI read abundance (log10)” value was 0. With “ACGATGACATGGACCGGTTTTCCCGGTAATCCGTATTTGCA (site AGGAAGACTTG)” the “recombinant UMI read abundance (log10)” value was 0.907. For “CACGGCCCATGGACCGGTTTTCCCGGTAATCCGTATTTGTT (site CACGGCGCTAA)”, the “recombinant UMI read abundance (log10)” value was 0.0318. For “TACATATCATGGACCGGTTTTCCCGGTAATCCGTATTTGGG (site TACATATCTCC)”, the “recombinant UMI read abundance (log10)” value was 0. In the case of “CACTCGTCATGGACCGGTTTTCCCGGTAATCCGTATTTGCC (site CACTCGTCTGG)”, the “recombinant UMI read abundance (log10)” value is reported as 3.2. For “CAATGCTCATGGACCGGTTTTCCCGGTAATCCGTATTTGAT (site CAATGCTCTCT)”, the “recombinant UMI read abundance (log10)” value was 0.607. In the case of “CTCCTCTCATGGACCGGTTTTCCCGGTAATCCGTATTTGTA (site CTGCTCTCTTA)”, the “recombinant UMI read abundance (log10)” value is reported as 0.0102. With “CCCGGTCCATGGACCGGTTTTCCCGGTAATCCGTATTTGCG (site CCCGGTCCTTG)” the “recombinant UMI read abundance (log10)” value was 0. In the case of “GGAGTGGCATGGACCGGTTTTCCCGGTAATCCGTATTTGGT (site GGAGTCGCTAC)”, the “recombinant UMI read abundance (log10)” value is reported as 0.014. In the case of “AGTTATGCATGGACCGGTTTTCCCGGTAATCCGTATTTGGA (site ATTTATGCTTC)”, the “recombinant UMI read abundance (log10)” value is reported as 0.709. With “TAGCTAGCATGGACCGGTTTTCCCGGTAATCCGTATTTGAG (site TAGCTAGCTTT)” the “recombinant UMI read abundance (log10)” value was 0.014. With “TTGAGAACATGGACCGGTTTTCCCGGTAATCCGTATTTGCC (site TTGAGAACTGG)” the “recombinant UMI read abundance (log10)” value was 1.36. For “GAGCTTACATGGACCGGTTTTCCCGGTAATCCGTATTTGAT (site GAGCTTACTAT)”, the “recombinant UMI read abundance (log10)” value was 1.77. With “CAGCTAGCATGGACCGGTTTTCCCGGTAATCCGTATTTGAA (site GAGCTAGCTTT)” the “recombinant UMI read abundance (log10)” value was 0.0499. For “CCTTGCCCATGGACCGGTTTTCCCGGTAATCCGTATTTGAT (site TCTTGCCCTAT)”, the “recombinant UMI read abundance (log10)” value was 0.00903. With “GCGTAATCATGGACCGGTTTTCCCGGTAATCCGTATTTGCC (site GCGTAATCTGG)” the “recombinant UMI read abundance (log10)” value was 2.11. In the case of “GGGTAGACATGGACCGGTTTTCCCGGTAATCCGTATTTGCC (site GGGTAGACTGG)”, the “recombinant UMI read abundance (log10)” value is reported as 2.39. With “TTGGCGGCATGGACCGGTTTTCCCGGTAATCCGTATTTGCT (site TTCGCGGCTAG)” the “recombinant UMI read abundance (log10)” value was 0. In the case of “AATTATCCATGGACCGGTTTTCCCGGTAATCCGTATTTGCT (site AATTATCCTAG)”, the “recombinant UMI read abundance (log10)” value is reported as 0.673. For “CGTGGGACATGGACCGGTTTTCCCGGTAATCCGTATTTGTT (site CGTGGGACTAA)”, the “recombinant UMI read abundance (log10)” value was 1.79. For “CTGGAAACATGGACCGGTTTTCCCGGTAATCCGTATTTGCA (site CTGGAAACTGG)”, the “recombinant UMI read abundance (log10)” value was 0. For “GCGAAGCCATGGACCGGTTTTCCCGGTAATCCGTATTTGAG (site GCGAAGCCTCT)”, the “recombinant UMI read abundance (log10)” value was 0.00807. With “GCATTATCATGGACCGGTTTTCCCGGTAATCCGTATTTGGC (site GCATTATCTGC)” the “recombinant UMI read abundance (log10)” value was 2.82. For “CCCATAACATGGACCGGTTTTCCCGGTAATCCGTATTTGTC (site CCCATAGCTGA)”, the “recombinant UMI read abundance (log10)” value was 0. In the case of “TGGTAATCATGGACCGGTTTTCCCGGTAATCCGTATTTGTG (site TGGTAATCTCA)”, the “recombinant UMI read abundance (log10)” value is reported as 1.65. With “ATTTATGCATGGACCGGTTTTCCCGGTAATCCGTATTTGGA (site AGTTATGCTTC)” the “recombinant UMI read abundance (log10)” value was 0.744. For “CAATGAGCATGGACCGGTTTTCCCGGTAATCCGTATTTGGG (site TAATGAGCTCC)”, the “recombinant UMI read abundance (log10)” value was 0.0682. In the case of “TCAGAGACATGGACCGGTTTTCCCGGTAATCCGTATTTGCG (site TCAGAGCCTCG)”, the “recombinant UMI read abundance (log10)” value is reported as 0.0106. In the case of “TCTTATACATGGACCGGTTTTCCCGGTAATCCGTATTTGCT (site TCTTATACTAG)”, the “recombinant UMI read abundance (log10)” value is reported as 0.00302. For “AGCCTGTCATGGACCGGTTTTCCCGGTAATCCGTATTTGAC (site AGCCTCTCTGT)”, the “recombinant UMI read abundance (log10)” value was 0. For “GAAGCGCCATGGACCGGTTTTCCCGGTAATCCGTATTTGTG (site CAAGCGCCTCA)”, the “recombinant UMI read abundance (log10)” value was 0.00406. For “CTAGTATCATGGACCGGTTTTCCCGGTAATCCGTATTTGAC (site CTCGTATCTGA)”, the “recombinant UMI read abundance (log10)” value was 0. For “CGGAATGCATGGACCGGTTTTCCCGGTAATCCGTATTTGGT (site CGGAATCCTAA)”, the “recombinant UMI read abundance (log10)” value was 0. In the case of “CCCCGCACATGGACCGGTTTTCCCGGTAATCCGTATTTGGA (site CCCCGCACTTC)”, the “recombinant UMI read abundance (log10)” value is reported as 0.0136. In the case of “GGTTTATCATGGACCGGTTTTCCCGGTAATCCGTATTTGAC (site GGTTTATCTGT)”, the “recombinant UMI read abundance (log10)” value is reported as 0.699. In the case of “CGTCTCTCATGGACCGGTTTTCCCGGTAATCCGTATTTGTA (site CCTCTCTCTTA)”, the “recombinant UMI read abundance (log10)” value is reported as 1.04. With “CCCTTCCCATGGACCGGTTTTCCCGGTAATCCGTATTTGGG (site CCCTTCCCTCC)” the “recombinant UMI read abundance (log10)” value was 0.00862. With “TGGCCGGCATGGACCGGTTTTCCCGGTAATCCGTATTTGTC (site TGGCCGGCTGT)” the “recombinant UMI read abundance (log10)” value was 0. With “GAGGTTCCATGGACCGGTTTTCCCGGTAATCCGTATTTGGC (site GAGGTTCCTGC)” the “recombinant UMI read abundance (log10)” value was 0. In the case of “CTACGAACATGGACCGGTTTTCCCGGTAATCCGTATTTGGA (site CTACGAACTTC)”, the “recombinant UMI read abundance (log10)” value is reported as 1.91. With “TCATGACCATGGACCGGTTTTCCCGGTAATCCGTATTTGCG (site TCATGACCTCG)” the “recombinant UMI read abundance (log10)” value was 0.00794. For “ACATCTGCATGGACCGGTTTTCCCGGTAATCCGTATTTGTG (site ACATCTACTCA)”, the “recombinant UMI read abundance (log10)” value was 0.401. With “TTAGCTGCATGGACCGGTTTTCCCGGTAATCCGTATTTGTG (site TTAGCTGCTCG)” the “recombinant UMI read abundance (log10)” value was 0.0153. In the case of “CGCGGCACATGGACCGGTTTTCCCGGTAATCCGTATTTGTA (site CGCGGCACTTA)”, the “recombinant UMI read abundance (log10)” value is reported as 1.66. For “ACCTTCTCATGGACCGGTTTTCCCGGTAATCCGTATTTGGG (site ACCTTCTCTCC)”, the “recombinant UMI read abundance (log10)” value was 0.00668. In the case of “AGGTTCCCATGGACCGGTTTTCCCGGTAATCCGTATTTGTA (site AGGTTCCCTTA)”, the “recombinant UMI read abundance (log10)” value is reported as 1.5. With “ACAGTAACATGGACCGGTTTTCCCGGTAATCCGTATTTGCA (site ACAGTAGCTTG)” the “recombinant UMI read abundance (log10)” value was 1.39. For “CACGGCGCATGGACCGGTTTTCCCGGTAATCCGTATTTGTT (site CACGGCTCTAA)”, the “recombinant UMI read abundance (log10)” value was 1.22. For “CCCTGCTCATGGACCGGTTTTCCCGGTAATCCGTATTTGGG (site CCCTGCTCTCC)”, the “recombinant UMI read abundance (log10)” value was 0.409. In the case of “CTCCGTACATGGACCGGTTTTCCCGGTAATCCGTATTTGAG (site CTCCTTACTCT)”, the “recombinant UMI read abundance (log10)” value is reported as 0.0158. With “TTCCACCCATGGACCGGTTTTCCCGGTAATCCGTATTTGAC (site TTCCACCCTGT)” the “recombinant UMI read abundance (log10)” value was 0. In the case of “CAGTCCTCATGGACCGGTTTTCCCGGTAATCCGTATTTGCC (site CACTCCTCTGG)”, the “recombinant UMI read abundance (log10)” value is reported as 2.05. For “GACAAACCATGGACCGGTTTTCCCGGTAATCCGTATTTGTT (site GACAAACCTAT)”, the “recombinant UMI read abundance (log10)” value was 0. For “ACGCCTCCATGGACCGGTTTTCCCGGTAATCCGTATTTGTG (site ACGCCTCCTCA)”, the “recombinant UMI read abundance (log10)” value was 0.0426. For “GCCATATCATGGACCGGTTTTCCCGGTAATCCGTATTTGTC (site ACCATATCTGA)”, the “recombinant UMI read abundance (log10)” value was 1.74. With “AGCTCCGCATGGACCGGTTTTCCCGGTAATCCGTATTTGGG (site AGCTCTGCTCC)” the “recombinant UMI read abundance (log10)” value was 0.00972. With “GCTGGTTCATGGACCGGTTTTCCCGGTAATCCGTATTTGTC (site GCTGGTTCTGA)” the “recombinant UMI read abundance (log10)” value was 0.00915.
